Tests used:
[1] = test system: orthotopic HY24409 tumors; assay: Flow cytometric analysis and multiplex immunofluorescent staining of tumors or spleens from mice treated with mifepristone and dual ICB; type: in vivo, mouse
Experimental: (§1) Cancer Discov 10, 1374-1387 (2020). […] CyTOF data were analyzed by FlowJo and Cytobank.
(§2) Immunity 54, 1561-1577 e1567 (2021).

SW1990 cells = assay: qPCR, immunoblotting and flow cytometry of PD-L1 and MHC-I pathway expression in SW1990 cells; type: cell-based, human
Experimental: (See Bardeesy, N., et al. supra). The human PDAC cell lines SU86.86 ([…]), SW1990 ([…]), BXPC-3 ([…]), Miapaca-2 ([…]), Capan-1 ([…]), ASPC-1 ([…]), Hs766T ([…]), Colo357/FG ([…]), L3.6PL ([…]), Panc28 ([…]), Capan-2 ([…]), CF-Pac-1 ([…]), Panc3 (sex unknown), Panc1 ([…]), Panc48 (sex unknown), and HPAC ([…]) were from Mien-Chie Hung's lab stock. […] The BXPC-3, Miapaca-2, Capan-1, ASPC-1, Colo357/FG, L3.6PL, Panc28, Capan-2, CF-Pac-1, Panc3, Panc1, Panc48, and HPAC cell lines were cultured in DMEM/F-12 (Corning, 10-092-CV) supplemented with 10% FBS and 1% penicillin/streptomycin. Cells were grown in a humidified incubator with 5% CO2 at 37° C., and low-passage stocks were maintained in a centralized lab cell bank. Short tandem repeat profiling and mycoplasma tests were done by the Cytogenetics and Cell Authentication Core at MD Anderson Cancer Center.
Membranes were blocked with 10% non-fat milk in TBST and incubated with the primary antibody at 4° C. overnight, followed by incubation with the secondary antibody conjugated with horseradish peroxidase (HRP).

HPAC cells = assay: qPCR and immunoblotting of PD-L1 and MHC-I in HPAC cells; type: cell-based, human; details: MIFE 20 μM (qPCR) or indicated doses (immunoblot), 72 h
Description: The male PDAC cell lines HY24409 and HY24160 and the female PDAC cell line HY19636 were established from KPC mice (p48-Cre; Kras^LSL-G12D/+; Trp53^loxP/+) that were backcrossed to a C57BL/6 background (purity: ˜ 98%). (See Bardeesy, N., et al. supra). The human PDAC cell lines SU86.86 ([…]), SW1990 ([…]), BXPC-3 ([…]), Miapaca-2 ([…]), Capan-1 ([…]), ASPC-1 ([…]), Hs766T ([…]), Colo357/FG ([…]), L3.6PL ([…]), Panc28 ([…]), Capan-2 ([…]), CF-Pac-1 ([…]), Panc3 (sex unknown), Panc1 ([…]), Panc48 (sex unknown), and HPAC ([…]) were from Mien-Chie Hung's lab stock. The HY24409, HY24160, HY19636, SU86.86, SW1990, and Hs766T cell lines were cultured in RPMI 1640 (Corning, 10-041-CV) supplemented with 10% fetal bovine serum (FBS) (Gibco, 10438-034) and 1% penicillin/streptomycin (Sigma, P4333). The BXPC-3, Miapaca-2, Capan-1, ASPC-1, Colo357/FG, L3.6PL, Panc28, Capan-2, CF-Pac-1, Panc3, Panc1, Panc48, and HPAC cell lines were cultured in DMEM/F-12 (Corning, 10-092-CV) supplemented with 10% FBS and 1% penicillin/streptomycin. Cells were grown in a humidified incubator with 5% CO2 at 37° C., and low-passage stocks were maintained in a centralized lab cell bank. Short tandem repeat profiling and mycoplasma tests were done by the Cytogenetics and Cell Authentication Core at MD Anderson Cancer Center. […]

[2] = test system: orthotopic HY24409 tumors; assay: CyTOF, flow cytometry, qPCR and multiplex immunofluorescent staining of orthotopic HY24409 tumors; type: in vivo, mouse
Experimental: as §1, §2

[3] = relative to the control group, either with or without co-treatment with dual ICB
[4] = CyTOF, orthotopic HY24409 tumors, vs vehicle or control shRNA
[5] = flow cytometric analysis, HY24409 tumors

CC#C[C@]1(O)CC[C@H]2[C@@H]3CCC4=CC(=O)CCC4=C3[C@@H](c3ccc(N(C)C)cc3)C[C@@]21C [mifepristone]
tumor infiltration by CD8+ T cells and granzyme B+ CTLs ([1]; flow cytometric analysis and multiplex immunofluorescent staining, HY24409 tumors): increase
cell-surface MHC-I (H-2K^b) and B2M in tumor cells [1, 3]: increase
cell-surface PD-L1 in tumor cells [1, 3]: decrease
PD-L1 protein (SW1990 cells; Western blot and flow cytometric analysis, MIFE 72 h): downregulated
MHC-I and B2M proteins (SW1990 cells; Western blot and flow cytometry, MIFE 72 h): upregulation
mRNA levels of components in the MHC-I pathway, including HLA-A, HLA-B, HLA-C, B2M, SEC61B, and SEC61G (SW1990 cells; qPCR, MIFE 20 μM, 72 h): increased
mRNA levels of immune checkpoint ligands, including PD-L1, CD47, TDO, and SIGLEC15 (SW1990 cells; qPCR, MIFE 20 μM, 72 h): decreased
MHC-I at both mRNA and protein levels (HPAC cells): significantly upregulated
PD-L1 at both mRNA and protein levels (HPAC cells): downregulated
abundance of CD4+ T cells, regulatory T cells, natural killer cells, B cells, dendritic cells, macrophages, and myeloid-derived suppressor cells ([2]; CyTOF, orthotopic HY24409 tumors): No significant change
increase in percentage of granzyme B+ CTLs [2, 4]: 1.6 fold
increase in percentage of tumor-infiltrating CD8+ cells [2, 4]: 1.9 fold
cell-surface MHC-I (H-2K^b) and B2M levels in pancreatic tumors [2, 5]: higher
cell-surface PD-L1 levels in pancreatic tumors [2, 5]: lower
expression levels of intracellular TNFα, IFNγ, and IL-2 in tumor-associated CD8+ cells ([2]; flow cytometry after ex vivo stimulation with PMA and ionomycin, HY24409 tumors): significantly increased
surface levels of T cell exhaustion markers PD-1, Tim-3, and LAG-3 ([2]; flow cytometry, CTLs in HY24409 pancreatic tumors): significant reduction
multiplex immunofluorescent staining of CD3, CD8, and granzyme B in pancreatic tumors ([2]; mifepristone-treated C57BL/6 mice, HY24409): substantial enrichment
mRNA levels of MHC-I components (H-2k, H-2d, and B2m) in tumors ([2]; qPCR, HY24409 tumors): upregulated
mRNA levels of PD-L1 and known GR-activated target genes (Klf9, Snai2, and Fn1) in tumors ([2]; qPCR, HY24409 tumors): downregulated
